Measured values published in a melting point compilation (Tetko et al.; mined from patent text by program, amines drawn as free bases though some values may be those of a salt).

Row | melting point [°C] | Structure (SMILES)
1 | 129 to 130 | COC(=O)CN(C)CC(=O)Nc1cccc2c1C(=O)c1c(NC(=O)CN(C)CC(=O)OC)cccc1C2=O
2 | 177 to 178 | CN1CCN(c2ccccc2C=C2CCCN(c3ccc(Cl)cc3)C2=O)CC1
3 | 242 | C=CCc1c[nH]c2c([N+](=O)[O-])cccc2c1=O
4 | 211 to 213 | COc1cc2cc(C(N)=O)sc2cc1OC
5 | 136 | CC(C)(C)N(Cc1ccccc1)CC(O)c1ccc(OCc2ccccc2)c2[nH]c(CO)cc12 (stereo not given)
6 | 195 to 196 | Clc1nc(-n2cnc(-c3ccccc3)c2-c2ccccc2)c2ccccc2c1-c1ccccc1
7 | 101 | CN(C)C=CC(=O)c1ccc(C(F)(F)F)cc1[N+](=O)[O-]
8 | > 250 | O=c1[nH]c2sc(I)nc2c2ccccc12
9 | 87 to 89 | N#Cc1ccc(-c2ccc(OCCCCCCO)cc2)cc1
10 | 130 to 131 | COc1ccc(Sc2ncccc2C(=O)NCC23CC4CC(CC(C4)C2)C3)cc1
11 | 79 to 81 | CC(ON(C(C)(C)CO)C(C)(C)CO)c1ccccc1 (stereo not given)
12 | 91.7 | CCOC(=O)N1CCC(C(=O)c2ccc(F)cc2)(c2ccccc2)CC1
13 | 94 to 96 | O=C(CCC1OC=CO1)c1ccc2c(c1)OCO2
14 | 125 to 127 | CC(O)c1ccc(CCNS(=O)(=O)c2ccc(Br)cc2)cc1 (stereo not given)
15 | 83 to 85 | CCCCCCCCCCCCCCCCCCNS(=O)(=O)c1cccc(C(F)(F)F)c1
16 | 182 to 183 | COc1cc(Nc2nccc(-c3nc4ccccc4s3)n2)cc(OC)c1OC
17 | 210 to 212 | Nc1ccccc1Oc1cccc2c1NC(=O)C2
18 | 83 to 84 | CCN(CC)C(=O)COc1ccc(C(O)(CC)c2cccc(C(F)(F)F)c2)cc1 (stereo not given)
19 | 62 to 63 | COc1ccc(C2SCCS2)cc1
20 | > 300 | O=C(O)c1cc(-c2ccncc2)c[nH]c1=O
21 | 220 to 221 | CC(C)Cn1c(CNC(=O)OC(C)(C)C)c(-c2ccc(Cl)cc2)c2cc(O)ccc2c1=O
22 | 215 to 217 | CCC(CC)Oc1cc(C)nc2c1nc(C)c(=O)n2-c1c(C)cc(C)cc1C
23 | 166 to 168 | C#CCCCOc1ccc(/C=C/C(=O)Nc2ccccc2C(=O)O)cc1OC
24 | 227 to 229 | CC(C)Oc1ccc(-c2nn(C(C)c3oc4cccc(N5CCOCC5)c4c(=O)c3-c3cccc(F)c3)c3ncnc(N)c23)cc1F (stereo not given)
25 | 194 to 197 | Oc1nc(-c2ccccc2)cs1

Row | melting point [°C] | Structure (SMILES)
26 | 148 to 150 | COCC(=O)N1CCN(CCc2ccc(-c3cccc(N)n3)cc2)CC1
27 | 68 to 69 | COC1OC(COCc2ccccc2)C(OCc2ccccc2)C(OCc2ccccc2)C1OCc1ccccc1 (stereo not given)
28 | 280 to 282 | CC(C)c1cc2c(=O)n3cc(C(N)=O)ccc3nc2s1
29 | 127 to 129 | O=C(O)CC1Cc2ccc(OCc3ccccc3)cc2C1 (stereo not given)
30 | 221 to 225 | CC(C)(O)C1CCN(S(=O)(=O)c2cc(C#N)ccc2Oc2cc(Cl)ccc2Cl)CC1
31 | 72 | CC(CCO)c1ccc(-c2ccccc2)c(F)c1 (stereo not given)
32 | 200 | O=C1C2=C(SCCO2)C(=O)N1c1ccc2cccnc2n1
33 | 103 to 104 | CC1(C)CCC(Cc2ccc(Cl)cc2)C1(O)CO (stereo not given)
34 | 156 to 158 | CC(C)(C)COc1nc(N2CCNCC2)nc(N2CCS(=O)CC2)c1[N+](=O)[O-]
35 | 138 to 141 | CC1(c2ccc(CNC(=O)CCl)cc2)Cc2cc(OCC(=O)O)c(Cl)c(Cl)c2C1=O (stereo not given)
36 | 209 | FC(F)(F)c1ccc(-c2cc(C(F)(F)F)n3ncc(-c4ccncc4)c3n2)cc1C(F)(F)F
37 | 106 to 107 | C#CC(C)(C)N1CCN(C(=O)OC(C)(C)C)CC1
38 | 136 | ClCn1nnc2ccccc21
39 | 126 to 128 | NC(=O)CSC(=O)c1ccco1
40 | 154 to 156 | Cc1ccc(NC(=O)OCc2ccco2)cc1NC(=O)OCc1ccco1
41 | 116 to 118 | O=C1C2CCCCC2(Cl)C(=O)N1c1ccc(Cl)cc1 (stereo not given)
42 | 192 to 194 | CC=NOCc1nc2c(N)nc(C)c(C)c2n1CCCCNC(=O)c1ccccc1
43 | 182 to 184 | COC(=O)C1(N)CCN(c2ncc3ncnc(Nc4ccc(F)c(Cl)c4)c3n2)CC1
44 | 138 to 139 | O=C1NC(=O)C(c2sccc2Br)O1 (stereo not given)
45 | 166 to 170 | COc1ccc(-c2cnc(N)c(Br)n2)cc1
46 | 64 to 65 | CCOC(=O)CCc1ccc(OCc2ccc(OCc3nc(-c4ccccc4)oc3C)cc2)cc1OCC
47 | 103 to 107 | CON(C)C(=O)c1cc2c(Sc3ccc(C)cc3)cncc2s1
48 | 84 to 86 | C1CNCCCNCCCNCCCNC1
49 | 136 to 137 | COC(=O)c1nc(-c2ccccc2)n(-c2ccc(Cl)cc2)n1
50 | 93 to 95 | CN(C)Cc1noc(-c2nn(Cc3ccccc3)c3ccccc23)n1

Row | melting point [°C] | Structure (SMILES)
51 | 175 to 176 | CC(C)(C)NC(=O)[C@@H]1C[C@@H]2CCCC[C@@H]2CN1C[C@@H](O)[C@@H](N)Cc1ccccc1
52 | 71 to 72 | CCCCCC(=O)c1c(C)n(C(C)=O)c(=O)n1C(C)=O
53 | 209 to 211 | Nc1ncnc2c1cnn2C1CCC(OCC(F)c2ccccc2)C(F)C1 (stereo not given)
54 | 158 | CCCCCCCC(=O)N(C)Cc1cc(-c2ccc(C=C3SC(=O)NC3=O)cc2)ccc1OCc1ccccc1
55 | 114 to 115 | CCOc1nc2c(cnn2CC)nc1C(=O)NN1CCCCC1
56 | 129 to 131 | O=C(CCCCC1CCN(Cc2ccccc2)CC1)c1ccc(N2CCCC2)cc1
57 | 199 to 201 | COc1cccc(C=C2NC(=O)NC2=O)c1OCCc1ccccc1
58 | 118 to 120 | CN(CCOc1cccc2cc(S(=O)(=O)c3ccccc3)n(C(=O)OC(C)(C)C)c12)C(=O)OC(C)(C)C
59 | 218 | O=c1c2ccc([N+](=O)[O-])cc2nc(CSc2ncnc3[nH]cnc23)n1-c1ccccc1Cl
60 | 146 to 148 | CCN1C(=O)C(C)(C)C(=O)N(C)c2cc(CN(CCn3ccc4oc(C)cc4c3=O)Cc3cncnc3)ccc21
61 | 132 to 134 | COC(=O)CCCC1C(=S)Nc2ccccc21 (stereo not given)
62 | 130 to 131 | CCCC(=O)c1cnc2c(C)cccc2c1Nc1ccccc1Cl
63 | 182 to 184 | Cc1[nH]cnc1CSCCNc1[nH]cc(-c2ccccc2)c1[N+](=O)[O-]
64 | 257 to 260 | CCc1ccc(-c2ccc3c(c2)C=C(C(=O)Nc2ccc(CN(C)C4CCOCC4)cc2)CCS3(=O)=O)cc1
65 | > 300 | CC(C)(C)c1ccc(NC(=O)c2ccc(C3NOC(=O)N3)cc2)cc1 (stereo not given)
66 | 158 to 160 | O=C1NC(Cc2c[nH]c3ccccc23)C(=O)N1CCCN1CCOCC1 (stereo not given)
67 | 78 to 80 | N#CCc1cccc2nnsc12
68 | 120 | CNC(=O)[C@@H]1CSCN1S(=O)(=O)c1ccc(Cl)c(COc2cccc3c(-n4ccnc4)cc(C)nc23)c1Cl
69 | 143 to 145 | COc1cccc2cc(C(=O)c3ccc(Cl)c(S(=O)(=O)Cl)c3)oc12
70 | 133 to 134 | FC(F)(F)Sc1ccc(C=Cc2nc(CCl)cs2)cc1
71 | 97 to 98 | O=C(c1ccc(Cl)cc1)c1ccc([N+](=O)[O-])cc1
72 | 154 to 158 | N#CC1(C2(O)CCCCC2)Cc2cc3occc3cc21 (stereo not given)
73 | 193 to 196 | CC(=O)N1CCc2c(sc(C)c2CCN2CCC(c3nn(-c4ccc(F)cc4)c4cc(F)ccc34)CC2)C1
74 | 185 to 187 | O=CNNc1ccc(NC(=O)c2cccc([N+](=O)[O-])c2)cc1
75 | 101 to 103 | COc1ccc(CNc2nnc(-c3ccc(C(F)(F)F)cc3)cc2C(F)(F)F)cc1

Row | melting point [°C] | Structure (SMILES)
76 | 120 | C=CCNC(=O)N1CC(OCc2ccc(C(F)(F)F)cc2)C1
77 | 61 | CCC(=O)N1C(=O)OC(C)(C)[C@@H]1Cc1ccccc1
78 | 111 to 117 | CS(=O)(=O)c1ccc(-c2cnn(-c3ccc(F)cc3)c(=O)c2OCCC2CC2)cc1
79 | > 228 | Cc1ccc([N+](=O)[O-])cc1Nc1ncc(-c2ccc(C#N)cc2)o1
80 | 158 to 159 | COC(=O)c1cc2c3ccccc3n(Cc3ccccc3)c2s1
81 | 186 to 188 | C[C@H](NS(=O)(=O)c1ccc(-c2c(C#N)c3cc(C(F)(F)F)cnc3n2-c2ccccc2)nc1)C(F)(F)F
82 | 174 to 176 | CC(C)(C(=O)OCC(=O)c1ccccc1)n1c(=O)[nH]c2cc(F)c(F)cc2c1=O
83 | 123 to 124 | CCC(COC)n1cnc2c(Nc3ccc(C(F)(F)F)cc3Br)nc(C)nc21 (stereo not given)
84 | 148 to 150 | CC(=O)Oc1ccc2c(c1)CCC1C2CCC2(C)C(OC(=O)c3ccccc3)CCC12 (stereo not given)
85 | 180 to 181 | O=C(Nc1ccc(CN2CCCCC2)cc1)C1=Cc2cc(C3CCCCC3)ccc2CC1
86 | 170 to 172 | CCCCN1CN(C2CC(OC(=O)c3ccccc3C)C(COC(=O)c3ccccc3C)O2)C(=O)NC1=O (stereo not given)
87 | 65 to 66 | CCOC(=O)C(C)NC(=O)c1cc(C)on1 (stereo not given)
88 | 145 to 147 | CC(CO)Nc1c(Br)cnc2cc(Cl)ccc12 (stereo not given)
89 | 268 | CC(=O)Nc1ccc(Nc2c(NCc3ccccc3)cc(C(=O)O)cc2S(=O)(=O)Nc2ccccc2NC(C)=O)cc1
90 | 220 | COc1ccc2[nH]c3c(c2c1)C(C)CNC3=O (stereo not given)
91 | 163 to 164 | CCOCc1nc2c(N)nc3cc(Br)cnc3c2n1CC(C)C
92 | 158 to 159 | Cc1cc(C(O)=S)cc(N)c1C(=O)c1ccccc1
93 | 196 to 198 | Nc1nc2ccccc2c2c1ncn2CCOCc1ccccn1
94 | 146 to 148 | Cc1cc(C)c(O)cn1
95 | 92 to 94 | COCCNC(=O)c1cccc(-c2cccc3cc(Cc4cc(F)ccc4F)sc23)c1
96 | 198 to 199 | Cc1cc(C)cc(Sc2c(CO)nc(C)n2C)c1
97 | 93 to 95 | NNc1cccc(F)c1[N+](=O)[O-]
98 | 84 to 86 | CCCCCCCCCCCC(CC(=O)NC(CCCNC(=O)OCc1ccccc1)COC1CCCCO1)OCc1ccccc1 (stereo not given)
99 | 148 to 150 | Cc1nc(CC(O)Cn2cnc3c2c(=O)n(C)c(=O)n3C)no1 (stereo not given)

Row | Structure (SMILES) | melting point [°C]
100 | COc1cccc(C2(C#N)CCN(C(=O)CN3CCN(c4cnccn4)CC3)CC2)c1 | 108
